According to US20110301162A1, “AURORA KINASE MODULATORS AND METHODS OF USE” (AMGEN INC., priority 2008, published 2011):

Experiments:
[1] = tested on: HeLa cells; test: HeLa cell 24 hr ploidy assay; type: cell-based; settings: Homo sapiens, 24 hrs treatment, DNA ploidy, average, read-out: 24h_4N Ploidy EC50_IP (uM Avg)
Procedure: The purpose of this assay is to evaluate the ability of selected individual compounds to induce Deoxyribonucleic acid (DNA) content (ploidy) in cells through failed cell division. Cell cycle analysis is a rapid and efficient way to evaluate the status of DNA content (ploidy) of a given cell. HeLa cells (1×10^4 HeLa cells/well) in 100 ul of media (MEM+10% FBS) were plated in 96-well plates (Packard View) and cultured for 24 hrs at 37° C. maintained in a 5% CO2 atmosphere. The following day, cells were treated for 24 hrs with inhibitor compounds (10 pt. Dose ranging from 0.0024-1.25 umol/L). The compounds were serially diluted in DMSO (0.25% final concentration). The cells were fixed (3.7% Formaldehyde and 1% glutaraldehyde) and permeabilized (1×PBS with 1% BSA an d0.2% Triton X-100) in preparation for nuclear staining. The well plates were stained for 45 minutes at RT in the dark using Hoechest 33342 nuclear stain at 0.5 ug.ml (Stock of 10 mg/ml, Invitrogen, Calif., Cat #H3570). The nuclear stain was removed by aspiration and the cells were washed with wash buffer. A Cellomics Array Scan Vti plate reader was used to acquire the DNA ploidy data of the cells using Cell Cycle bioapplication. Numbers for each of “valid cell count/well”, “% of 4N cells” and “% of >4Ncells” were calculated with the assistance of an Activity Base 5.1ca software and dose curves were generated using an XLFit software. With XLFit, final EC50 IP and EC50 transit values, as well as the Max and Min, were calculated for each curve.

[2] = target: T1, AuroraA-TPX2 (Homo sapiens, UniProt O14965); test: AuroraA-TPX2 Homogeneous Time Resolved Fluorescent (HTRF) kinase assay; type: biochemical; settings: average; ATP about 1 μM; read-out: AurA_IC50_IP (uM Avg)
T1 construct: 20 μL of AuroraA-TPX2 KD GST; GST
T1 sequence (O14965 133-383 limits assumed): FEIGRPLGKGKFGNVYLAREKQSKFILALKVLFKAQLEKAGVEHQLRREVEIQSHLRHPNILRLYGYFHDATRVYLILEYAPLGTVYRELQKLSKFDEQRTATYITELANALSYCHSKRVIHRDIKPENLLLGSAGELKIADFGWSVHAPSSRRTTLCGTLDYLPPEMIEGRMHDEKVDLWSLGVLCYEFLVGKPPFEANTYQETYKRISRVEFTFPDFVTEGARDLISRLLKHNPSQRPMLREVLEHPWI
T1 sequence (Q9ULW0 1-43 partner limits assumed): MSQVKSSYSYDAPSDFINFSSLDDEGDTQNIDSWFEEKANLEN
Procedure: The Aurora-A HTRF assay begins with Aurora-A in the presence of ATP phosphorylating the biotinylated peptide PLK. The reaction incubates for about 120 min. Detection reagents are added to quench the reaction. These agents stop the reaction by diluting out the enzyme and chelating the metals due to the presence of EDTA. After addition, the assay is incubated overnight to allow the detection reagents to equilibrate.
The AuroraA HTRF assay comprises 1 μL of compound in 100% DMSO, 20 μL of ATP and biotinylated PLK, and 20 μL of AuroraA-TPX2 KD GST for a final volume of about 41 μL. The final concentration of PLK is about 1 μM. The final concentration of ATP is about 1 μM (Km(app)=1 μM+/−0.1) and the final concentration of AuroraA is about 5 nM. Buffer conditions are as follows: 60 mM HEPES pH 7.5, 25mM NaCl, 10 mM MgCl, 2 mM DTT, 0.05% BSA.
(§1) The assay is quenched and stopped with 160 μL of detection reagent. Detection reagents are as follows: Buffer made of 50 mM Tris, pH 7.5, 100 mM NaCl, 3 mM EDTA, 0.05% BSA, 0.1% Tween20. Added to this buffer prior to reading is Steptavidin allophycocyanin (SA-APC) at a final conc in the assay of 0.0005 mg/mL, and europilated anti-phosphoPLK Ab (Eu-anti-PLK) at a final conc of 0.02 nM.
(§2) The assay plate is read in either a Discovery or a RubyStar. The eu-anti-PLK is excited at 320 nm and emits at 615 nm to excite the SA-APC which in turn emits at 655 nm. The ratio of SA-APC at 655 nm (excited due to close proximity to the Eu-anti-PLK because of phosphorylation of the peptide) to free Eu-anti-PLK at 615 nm will give substrate phosphorylation.
Many of the Examples described herein were tested and found to be active compounds. Table I includes related biological data, which may be interpreted using the activity gauge below.

[3] = target: T2, AuroraB (Homo sapiens, UniProt Q96GD4); test: AuroraB Homogeneous Time Resolved Fluorescent (HTRF) kinase assay; type: biochemical; settings: average; ATP 23 μM; read-out: AurB_IC50_IP (uM Avg)
T2 construct: 20 μL of AuroraB FL His; His
T2 sequence (Q96GD4 whole entry): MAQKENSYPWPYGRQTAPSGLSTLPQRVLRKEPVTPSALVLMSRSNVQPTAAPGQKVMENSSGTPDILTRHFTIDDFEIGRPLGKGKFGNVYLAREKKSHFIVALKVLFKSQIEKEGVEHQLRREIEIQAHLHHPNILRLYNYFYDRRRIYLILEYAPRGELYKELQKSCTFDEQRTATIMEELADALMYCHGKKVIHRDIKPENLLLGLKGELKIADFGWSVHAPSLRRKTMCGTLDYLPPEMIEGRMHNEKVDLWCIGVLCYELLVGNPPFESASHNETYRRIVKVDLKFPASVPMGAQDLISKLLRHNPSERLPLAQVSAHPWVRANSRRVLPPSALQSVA
Procedure: The AuroraB HTRF assay begins with AuroraB in the presence of ATP phosphorylating the biotinylated peptide Histone H3. The reaction incubates for about 90 min. the reaction is quentched by addition of detection reagents, which stop the reaction by diluting out the enzyme and chelating the metals due to the presence of EDTA. After addition, the assay is incubated for about 60 min to allow detection reagents to equilibrate.
The AuroraB HTRF assay comprises 1 μL of compound in 100% DMSO, 20 μL of ATP and biotinylated Histone H3, and 20 μL of AuroraB FL His for a final volume of 41 μL. The final concentration of Histone H3 is 0.1 μM. The final concentration of ATP is 23 μM (Km(app)=23 μM+/−2.6) and the final concentration of AuroraB is 400 pM. Buffer conditions are as follows: 50 mM HEPES pH 7.5, 5 mM NaCl, 0.5 mM MgCl, 0.5 mM MnCl, 2 mM DTT, 0.05% BSA.
as §1, with “0.001” for “0.0005”, “anti-phosphoHistoneH3” for “anti-phosphoPLK”, “(Eu-anti-HisH3)” for “(Eu-anti-PLK)”, “0.064” for “0.02”
as §2, with “eu-anti-HisH3” for “eu-anti-PLK”, “Eu-anti-HisH3” for “Eu-anti-PLK”
Many of the Examples described herein were tested, and fund to be active compounds. Table I includes related biological data, which may be interpreted using the activity gauge below.

Compound | EC50 [1] | IC50 [2] | IC50 [3]
Clc1ccc(-c2nnc(Nc3ccc(Oc4ccnc(-c5nc6ccccc6[nH]5)c4)cc3)c3ccccc23)cc1 [Example 38, N-(4-((2-(1H-benzimidazol-2-yl)-4-pyridinyl)oxy)phenyl)-4-(4-chlorophenyl)-1-phthalazinamine] | < 0.1 µM | 0.1 to 0.5 µM | < 0.1 µM
Cc1ccc(-c2nnc(Nc3ccc(Sc4ccnc(-c5cc6ccccc6[nH]5)n4)cc3)c3ccccc23)cn1 [Example 39, N-(4-((2-(1H-indol-2-yl)-4-pyrimidinyl)sulfanyl)phenyl)-4-(6-methyl-3-pyridinyl)-1-phthalazinamine] | 0.1 to 0.5 µM | 0.1 to 0.5 µM | < 0.1 µM
O=C(Nc1cc(Oc2ccc(Nc3nnc(-c4ccccc4)c4ccccc34)cc2F)ccn1)N1CCOCC1 [Example 44, N-(4-((2-fluoro-4-((4-phenyl-1-phthalazinyl)amino)phenyl)oxy)-2-pyridinyl)-4-morpholinecarboxamide] | 0.1 to 0.5 µM | 0.1 to 0.5 µM | < 0.1 µM
